Test results: patent publication US12617831B2 (UNIVERSITE D'ANGERS, priority 2019, dated 2026)
Ends that are not written are not given here.

Experiments:
[1] = tested on: MC3T3-E1 subclone 4 cells; type: cell-based, murine; details: for Interpretation of combination index on collagen maturity at EC50: 69 pM; for Interpretation of combination index on collagen maturity at EC50 / Interpretation of combination index on collagen maturity at […] EC50: t-test vs additivity 1.0±0.15; for Interpretation of combination index on collagen maturity at […] EC50: 100 pM; for Emax for dose-effect curves on collagen maturity: MC3T3-E1, day 14; for effect on collagen maturity index: MC3T3-E1, vs cultures without peptide (FIG. 20); for Cl at […] EC50 (combination index on collagen maturity): at […] mean EC50 of GIP and GLP-2, 100 pM; for Cl at […] EC50 (combination index on collagen maturity) / Cl at EC50 (combination index on collagen maturity): Chou & Talalay, mean ± SD; for Cl at EC50 (combination index on collagen maturity): at mean EC50 of GIP and GLP-2, 69 pM
Experimental: Briefly, MC3T3-E1 subclone 4 cells have been grown and propagated in α-MEM supplemented with 5% fetal bovine serum (FBS), 5% bovine calf serum (BCS), 100 U/mL penicillin, and 100 μg/mL streptomycin in a humidified atmosphere enriched with 5% CO2 at 37° C. […] This day was considered as day 1. The differentiation medium was replenished every two days. […] Cultures were rinsed at least six times with milliQ water, fixed in absolute ethanol, scrapped off the culture dish and transferred onto BaF2 windows where they were air-dried. Integrity of the collagen extracellular matrix was verified by comparing the obtained Fourier transform infrared spectrum with those of commercial collagen. Spectral analysis was performed using a Bruker Vertex 70 spectrometer (Bruker optics, Ettlingen, Germany) interfaced with a Bruker Hyperion 3000 infrared microscope equipped with a standard single element Mercury Cadmium Telluride (MCT) detector. Calibration of the infrared spectrometer is done once a week with a polystyrene film standard (Bruker optics). Infrared spectra were recorded at a resolution of 4 cm^-1, with an average of 32 scans in transmission mode. Background spectral images were collected under identical conditions from the same BaF2 windows at the beginning and end of each experiment to ensure instrument stability. At least 5 spectra were acquired for each condition and analyzed with a lab-made routine script (version 2.0) in Matlab R2016b (The Mathworks, Natick, MA). […] For GIP and GLP-2 dataset, the inventors used the collagen maturity data previously acquired and analyzed. First of all, collagen maturity obtained in control cultures, i.e. in the absence of double GIP/GLP-2 analogues, were averaged and subtracted to the all dataset. […] For each concentration of peptide, the mean, SD and number of events were computed. […] The GraphPad Prism analysis consisted in: […] Statistical Analysis […] Data are represented as mean±SD.

[2] = tested on: Murine Raw 264.7 cells; type: cell-based; details: for Emax, maximum inhibitory effect on osteoclastogenesis: Raw 264.7, * data obtained in previous experiments; for Cl at EC50 of GIP and GLP-2 (combination index for osteoclastogenesis): at 36.8 pM, Chou & Talalay; for Interpretation of combination index for osteoclastogenesis: at EC50 of GIP and GLP-2, 36.8 pM; for IC50 computed from curve fitting of osteoclastogenesis vs. peptide concentration: Raw 264.7, RANKL 10 ng/ml, 110 h, * values determined from previous experiments
Experimental: Murine Raw 264.7 cells were grown and expanded in propagation medium containing Dulbecco's modified Eagle medium (DMEM-Gibco) supplemented with 10% fetal bovine serum (FBS-Lonza), 100 U/mL penicillin and 100 μg/mL streptomycin (Gibco) in a humidified atmosphere enriched with 5% CO2 at 37° C. The first passage after thawing Raw 264.7 cells was considered as passage 1. Cells were used up to passage 8. […] Cultures were rinsed three times in distilled water and the residual activity was inhibited by 4% NaF (Sigma-Aldrich) for 30 min. Cells were then rinsed in distilled water and allowed to dry. TRAcP positive cells, with more than three nuclei, were identified as osteoclasts. The number of newly generated osteoclasts was assessed using light microscopic examination by a histologist that was blinded to the treatment intervention. […] For each concentration of peptide, the mean, SD and number of events were computed.

[3] = tested on: Murine MC3T3-E1 cells; assay: Collagen maturity assay in MC3T3-E1 cultures (Example 2); type: cell-based; details: MC3T3-E1 cultures (FIGS. 5-7)
Experimental: At confluence, the propagation medium was replaced by the differentiation medium containing αMEM supplemented with 5% FBS, 5% bovine calf serum, 100 U/mL penicillin, 100 μg/mL streptomycin, 50 μg/ml ascorbic acid and various concentrations of analogues. This day was considered as day 1. The differentiation medium was replenished every two days. […] Cultures were rinsed at least six times with milliQ water, fixed in absolute ethanol, scrapped off the culture dish and transferred onto BaF2 windows where they were air-dried. Integrity of the collagen extracellular matrix was verified by comparing the obtained Fourier transform infrared spectrum with those of commercial collagen. Spectral analysis was performed using a Bruker Vertex 70 spectrometer (Bruker optics, Ettlingen, Germany) interfaced with a Bruker Hyperion 3000 infrared microscope equipped with a standard single element Mercury Cadmium Telluride (MCT) detector. Infrared spectra were recorded at a resolution of 4 cm^−1, with an average of 32 scans in transmission mode. Background spectral images were collected under identical conditions from the same BaF2 windows at the beginning and end of each experiment to ensure instrument stability. At least 20 spectra were acquired for each condition and analyzed with a lab-made routine script in Matlab R2016b (The Mathworks, Natick, MA).

EC50 [1] [nM]	Interpretation of combination index on collagen maturity at EC50 [1]	Interpretation of combination index on collagen maturity at […] EC50 [1]	Cl at […] EC50 (combination index on collagen maturity) [1]	Cl at EC50 (combination index on collagen maturity) [1]	EC50 [2] [nM]	Molecule	Emax for dose-effect curves on collagen maturity [1] [%]	effect on collagen maturity index [1]	Emax, maximum inhibitory effect on osteoclastogenesis [2] [%]	Cl at EC50 of GIP and GLP-2 (combination index for osteoclastogenesis) [2]	Interpretation of combination index for osteoclastogenesis [2]	IC50 computed from curve fitting of osteoclastogenesis vs. peptide concentration [2] [nM]	profile of collagen maturity versus concentration [3]
0.0194	Additive (CI 0.85-1.15: additive)	Additive (CI 0.85-1.15: additive)	1.79 ± 2.20	1.29 ± 1.65	–	CC[C@H](C)[C@H](NC(=O)[C@H](Cc1ccccc1)NC(=O)[C@H](CC(=O)O)NC(=O)[C@H](CCCNC(=N)N)NC(=O)[C@H](C)NC(=O)[C@H](C)NC(=O)[C@H](CC(C)C)NC(=O)[C@H](CC(N)=O)NC(=O)[C@H](CC(=O)O)NC(=O)[C@H](CC(C)C)NC(=O)[C@@H](NC(=O)[C@@H](NC(=O)[C@H](CO)NC(=O)[C@H](Cc1ccc(O)cc1)NC(=O)[C@H](CC(=O)O)NC(=O)[C@H](CO)NC(=O)[C@@H](NC(=O)[C@H](Cc1ccccc1)NC(=O)[C@@H](NC(=O)CNC(=O)[C@H](CC(=O)O)NC(=O)[C@H](C)NC(=O)[C@@H](N)Cc1c[nH]cn1)[C@@H](C)O)[C@@H](C)CC)[C@@H](C)O)[C@@H](C)CC)C(=O)N[C@@H](CC(N)=O)C(=O)N[C@@H](Cc1c[nH]c2ccccc12)C(=O)N[C@@H](CC(C)C)C(=O)N[C@H](C(=O)N[C@@H](CCC(N)=O)C(=O)N[C@H](C(=O)N[C@@H](CCCCN)C(=O)N[C@H](C(=O)N[C@H](C(=O)N[C@@H](CC(=O)O)C(N)=O)[C@@H](C)O)[C@@H](C)CC)[C@@H](C)O)[C@@H](C)CC [Co-3]	121.8	very modest	37.88	48.00	Very strong antagonism (CI>10: very strong antagonism)	–	–
0.0229	Additive (CI 0.85-1.15: additive)	Additive (CI 0.85-1.15: additive)	389.0 ± 864	277.7 ± 617.4	0.0324	CC[C@H](C)[C@H](NC(=O)[C@H](Cc1ccccc1)NC(=O)[C@H](CC(=O)O)NC(=O)[C@H](CCCNC(=N)N)NC(=O)[C@H](C)NC(=O)[C@H](C)NC(=O)[C@H](CC(C)C)NC(=O)[C@H](CC(N)=O)NC(=O)[C@H](CC(=O)O)NC(=O)[C@H](CC(C)C)NC(=O)[C@@H](NC(=O)[C@@H](NC(=O)[C@H](CO)NC(=O)[C@H](Cc1ccc(O)cc1)NC(=O)[C@H](CC(=O)O)NC(=O)[C@H](CO)NC(=O)[C@@H](NC(=O)[C@H](Cc1ccccc1)NC(=O)[C@@H](NC(=O)CNC(=O)[C@H](CC(=O)O)NC(=O)[C@H](C)NC(=O)[C@@H](N)Cc1c[nH]cn1)[C@@H](C)O)[C@@H](C)CC)[C@@H](C)O)[C@@H](C)CC)C(=O)N[C@@H](CC(N)=O)C(=O)N[C@@H](Cc1c[nH]c2ccccc12)C(=O)N[C@@H](CC(C)C)C(=O)N[C@H](C(=O)N[C@@H](CCC(N)=O)C(=O)N[C@H](C(=O)N[C@@H](CCCCN)C(=O)NCC(=O)N[C@@H](CCCCN)C(=O)N[C@@H](CCCCN)C(N)=O)[C@@H](C)O)[C@@H](C)CC [Co-19]	118.1	very modest	62.36	1.94	Antagonism (CI 1.45-3.3: antagonism)	0.0324	–
–	–	–	–	–	–	CC[C@H](C)[C@H](NC(=O)[C@H](CO)NC(=O)[C@H](CCSC)NC(=O)[C@H](CC(=O)O)NC(=O)[C@H](CO)NC(=O)CNC(=O)[C@H](Cc1ccccc1)NC(=O)[C@H](CO)NC(=O)CNC(=O)[C@H](CCC(=O)O)NC(=O)CNC(=O)[C@@H](N)Cc1c[nH]cn1)C(=O)N[C@@H](C)C(=O)N[C@@H](CC(C)C)C(=O)N[C@@H](CC(=O)O)C(=O)N[C@@H](CCCCN)C(=O)N[C@@H](CC(C)C)C(=O)N[C@@H](C)C(=O)N[C@@H](C)C(=O)N[C@@H](CCCNC(=N)N)C(=O)N[C@@H](CC(=O)O)C(=O)N[C@@H](Cc1ccccc1)C(=O)N[C@H](C(=O)N[C@@H](CC(N)=O)C(=O)N[C@@H](Cc1c[nH]c2ccccc12)C(=O)N[C@@H](CC(C)C)C(=O)N[C@@H](CC(C)C)C(=O)N[C@@H](CCC(N)=O)C(=O)N[C@H](C(=O)N[C@@H](CCCCN)C(=O)N[C@H](C(=O)N[C@H](C(=O)N[C@@H](CC(=O)O)C(=O)NCC(=O)N[C@@H](C)C(=O)N[C@@H](C)C(=O)N[C@@H](CC(=O)O)C(=O)N[C@@H](CC(=O)O)C(=O)N[C@@H](CC(=O)O)C(=O)N[C@@H](CC(=O)O)C(=O)N[C@@H](CC(=O)O)C(=O)N[C@@H](CC(=O)O)C(N)=O)[C@@H](C)O)[C@@H](C)CC)[C@@H](C)O)C(C)C [GL-0001-Tag]	–	–	–	–	–	–	biphasic profile
–	–	–	–	–	–	CC[C@H](C)[C@H](NC(=O)[C@H](CO)NC(=O)[C@H](CCSC)NC(=O)[C@H](CC(=O)O)NC(=O)[C@H](CO)NC(=O)[C@@H](NC(=O)[C@H](Cc1ccccc1)NC(=O)[C@H](CO)NC(=O)CNC(=O)[C@H](CCC(=O)O)NC(=O)CNC(=O)[C@@H](N)Cc1c[nH]cn1)C(C)C)C(=O)N[C@H](C(=O)N[C@@H](CC(C)C)C(=O)N[C@@H](CC(=O)O)C(=O)N[C@@H](CCCCN)C(=O)N[C@@H](CC(C)C)C(=O)N[C@@H](C)C(=O)N[C@@H](C)C(=O)N[C@@H](CCCNC(=N)N)C(=O)N[C@@H](CC(=O)O)C(=O)N[C@@H](Cc1ccccc1)C(=O)N[C@H](C(=O)N[C@@H](CC(N)=O)C(=O)N[C@@H](Cc1c[nH]c2ccccc12)C(=O)N[C@@H](CC(C)C)C(=O)N[C@@H](CC(C)C)C(=O)N[C@@H](CCC(N)=O)C(=O)N[C@H](C(=O)N[C@@H](CCCCN)C(N)=O)[C@@H](C)O)C(C)C)C(C)C [GL-0002]	–	–	–	–	–	–	biphasic profile
–	–	–	–	–	–	CSCC[C@H](NC(=O)[C@H](CC(=O)O)NC(=O)[C@H](CO)NC(=O)[C@@H](NC(=O)[C@H](Cc1ccccc1)NC(=O)[C@H](CO)NC(=O)CNC(=O)[C@H](CCC(=O)O)NC(=O)CNC(=O)[C@@H](N)Cc1c[nH]cn1)C(C)C)C(=O)N[C@@H](CO)C(=O)N[C@H](C(=O)N[C@H](C(=O)N[C@@H](CC(C)C)C(=O)N[C@@H](CC(=O)O)C(=O)N[C@@H](CCCCN)C(=O)N[C@@H](CC(C)C)C(=O)N[C@@H](C)C(=O)N[C@@H](C)C(=O)N[C@@H](CCCNC(=N)N)C(=O)N[C@@H](CC(=O)O)C(=O)N[C@@H](Cc1ccccc1)C(=O)N[C@H](C(=O)N[C@@H](CC(N)=O)C(=O)N[C@@H](Cc1c[nH]c2ccccc12)C(=O)N[C@@H](CC(C)C)C(=O)N[C@@H](CC(C)C)C(=O)N[C@@H](CCC(N)=O)C(=O)N[C@H](C(=O)N[C@@H](CCCCN)C(N)=O)[C@@H](C)O)C(C)C)C(C)C)C(C)C [GL-0004]	–	–	–	–	–	–	biphasic profile
0.0086 ± 0.0069	Additive (CI 0.85-1.15: additive)	Antagonism (CI 1.45-3.3: antagonism)	2.30 ± 1.01	1.53 ± 1.10	1.48	HAEGTFISDYSIAMDKLAARDFINWLIQTKITD-NH2 (C-terminus assumed) [Co-7]	115.6	very modest	58.05	271.28	Very strong antagonism (CI>10: very strong antagonism)	1.48	–
